Data published in publication PMC4857387, “The Arabidopsis NPF3 protein is a GA transporter” (Nature Communications, 2016).

Columns and labels:
[1] = target: T1, NPF4.1 (AIT3) (Arabidopsis thaliana, UniProt Q9LSF0); experiment: competition of GA4 uptake in Xenopus oocytes, LC-MS; format: cell-based; details: 300 uM GA4 with 5 mM JA-Ile
T1 sequence (Q9LSF0 1-515): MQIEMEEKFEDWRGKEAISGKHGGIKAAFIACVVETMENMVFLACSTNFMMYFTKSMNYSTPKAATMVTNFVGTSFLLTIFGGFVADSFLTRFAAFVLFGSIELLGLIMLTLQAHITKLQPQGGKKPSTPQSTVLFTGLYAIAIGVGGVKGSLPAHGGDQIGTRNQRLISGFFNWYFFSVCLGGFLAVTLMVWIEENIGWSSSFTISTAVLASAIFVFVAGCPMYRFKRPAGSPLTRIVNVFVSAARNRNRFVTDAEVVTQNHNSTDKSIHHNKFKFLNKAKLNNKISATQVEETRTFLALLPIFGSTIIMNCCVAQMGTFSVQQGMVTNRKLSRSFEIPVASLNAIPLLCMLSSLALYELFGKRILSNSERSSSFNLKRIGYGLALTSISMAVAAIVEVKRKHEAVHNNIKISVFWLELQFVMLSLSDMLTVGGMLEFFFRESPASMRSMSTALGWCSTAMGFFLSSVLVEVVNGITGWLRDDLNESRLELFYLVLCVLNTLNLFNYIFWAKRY

[2] = substrate: C=C1C[C@]23C[C@H]1CC[C@H]2[C@@]12CC[C@H](O)[C@@](C)(C(=O)O1)[C@H]2[C@@H]3C(=O)O; experiment: uptake into Xenopus oocytes, LC-MS; format: cell-based, Arabidopsis thaliana; details: pH 5, 60 min incubation, diffusion into non-injected oocytes subtracted, judged by authors a likely overestimation

CC/C=C\C[C@H]1C(=O)CC[C@@H]1CC(=O)N[C@H](C(=O)O)[C@@H](C)CC [JA-Ile]
inhibition of GA4 uptake at 5 mM [1]: JA-Ile strongly inhibited GA4 uptake

B1: NPF3 (NPF3.1, AtNPF3.1) (Arabidopsis thaliana) (protein)
chain: MEEQSKNKISEEEKQLHGRPNRPKGGLITMPFIFANEICEKLAVVGFHANMISYLTTQLHLPLTKAANTLTNFAGTSSLTPLLGAFIADSFAGRFWTITFASIIYQIGMTLLTISAIIPTLRPPPCKGEEVCVVADTAQLSILYVALLLGALGSGGIRPCVVAFGADQFDESDPNQTTKTWNYFNWYYFCMGAAVLLAVTVLVWIQDNVGWGLGLGIPTVAMFLSVIAFVGGFQLYRHLVPAGSPFTRLIQVGVAAFRKRKLRMVSDPSLLYFNDEIDAPISLGGKLTHTKHMSFLDKAAIVTEEDNLKPGQIPNHWRLSTVHRVEELKSVIRMGPIGASGILLITAYAQQGTFSLQQAKTMNRHLTNSFQIPAGSMSVFTTVAMLTTIIFYDRVFVKVARKFTGLERGITFLHRMGIGFVISIIATLVAGFVEVKRKSVAIEHGLLDKPHTIVPISFLWLIPQYGLHGVAEAFMSIGHLEFFYDQAPESMRSTATALFWMAISIGNYVSTLLVTLVHKFSAKPDGSNWLPDNNLNRGRLEYFYWLITVLQAVNLVYYLWCAKIYTYKPVQVHHSKEDSSPVKEELQLSNRSLVDE
notes: putative 12 transmembrane domains
Km [2]: 500 µM
